The source of these data is paper PMC5355235, “FLT3 activating mutations display differential sensitivity to multiple tyrosine kinase inhibitors” (Oncotarget, 2017).

Read-outs that look alike come from different tables or passages of the source.

Type in all cases: cell-based
Assay [1] has as its system BaF3 FLT3 I836S mutant cells. The assay is described as follows: MTT growth inhibition assay, BaF3 FLT3 I836S cells. The conditions noted are these: Mus musculus, read-out: Proliferation IC50. As to the method: (§1) Figure 1 Growth of AL mutants in the presence of FLT3 TKI The BaF3 AL mutants were grown in the absence of IL-3 and analyzed by treatment in increasing concentrations of FLT3 TKI for 48 hours, after which growth inhibition was assessed using the MTT assay. Means are representative of at least three independent experiments.
(§2) The cells were grown in the absence of IL3 and analyzed by treatment in increasing concentrations of FLT3 TKI for 48 hours, after which growth inhibition was assessed using the MTT assay. Each experiment was performed at least three times and representative results are shown.
(§3) Based on Trypan Blue exclusion, 2 × 10^4 viable cells were seeded in quadruplicate in a 96-well microtiter plate in the presence or absence of inhibitor for 48 h. The effect of drug activity on cell viability was measured using the 3-(4,5-Dimethylthiazol-2-yl)-2,5-diphenyltetrazolium bromide (MTT) assay according to the manufacturer's instructions (Roche Applied Science, Indianapolis, IN, USA). Following treatment, cells were incubated for 4 h in MTT followed by dissolution in solubilization buffer overnight. Absorbance was measured at 570 nm on a Bio-Rad plate reader (Hercules, CA, USA). […] Results shown are presented as means and are representative of at least three independent experiments.

The test system of assay [2] is BaF3 FLT3 D593D mutant cells. The assay is described as follows: MTT growth inhibition assay, BaF3 FLT3 D593D cells. The note with it: Mus musculus, no IL-3, 48 h, read-out: Proliferation IC50. As to the method: as §1, §2, §3
(Tetrazolium assays rely on reduction of a dye to a coloured formazan, in cell work by metabolically active cells.)

The subject of assay [3] is BaF3 FLT3 D835G mutant cells. The assay is described as follows: MTT growth inhibition assay, BaF3 FLT3 D835G cells. The note with it: Mus musculus, no IL-3, 48 h, read-out: Proliferation IC50. As to the method:
as §1, §2, §3

Assay [4] relates to BaF3 FLT3 D835L+K mutant cells. The assay is described as follows: MTT growth inhibition assay, BaF3 FLT3 D835L+K cells. The note with it: Mus musculus, no IL-3, 48 h, read-out: Proliferation IC50. As for the experimental part:
as §1, §2, §3

Assay [5] concerns BaF3 FLT3 I836T mutant cells. The assay is described as follows: MTT growth inhibition assay, BaF3 FLT3 I836T cells. The conditions noted are these: Mus musculus, no IL-3, 48 h, read-out: Proliferation IC50. As for the experimental part: as §1, §2, §3
Assay [6] concerns BaF3 FLT3 D835N mutant cells. Briefly: MTT growth inhibition assay, BaF3 FLT3 D835N cells. The conditions noted are these: Mus musculus, no IL-3, 48 h, read-out: Proliferation IC50. As for the experimental part:
as §1, §2, §3

In assay [7] the test system is BaF3 FLT3 840G+S mutant cells. The assay is described as follows: MTT growth inhibition assay, BaF3 FLT3 840G+S cells. The conditions noted are these: Mus musculus, no IL-3, 48 h, read-out: Proliferation IC50. As for the experimental part:
as §1, §2, §3

The next assay relates to BaF3/ITD cells. Briefly: MTT growth inhibition assay, BaF3 FLT3-ITD cells. The conditions noted are these: Mus musculus, no IL-3, 48 h, read-out: Proliferation IC50. As for the experimental part: as §1, §2, §3
Assay [8] concerns BaF3 FLT3 I836L+D mutant cells. Briefly: MTT growth inhibition assay, BaF3 FLT3 I836L+D cells. The note with it: Mus musculus, no IL-3, 48 h, read-out: Proliferation IC50. As for the experimental part:
as §1, §2, §3

In assay [9] the test system is BaF3 FLT3 D835A mutant cells. Briefly: MTT growth inhibition assay, BaF3 FLT3 D835A cells. The note with it: Mus musculus, read-out: Proliferation IC50. As for the experimental part: as §1, §2, §3
In assay [10] the test system is BaF3 FLT3 D835Y mutant cells. The assay is described as follows: MTT growth inhibition assay, BaF3 FLT3 D835Y cells. The conditions noted are these: Mus musculus, no IL-3, 48 h, read-out: Proliferation IC50. As to the method: as §1, §2, §3
The next assay concerns FLT3 D835L+K. The assay is described as follows: FLT3 autophosphorylation, immunoprecipitation/Western blot, D835L+K. The note with it: D835L+K mutant, concentrations of 200 nM, 1 h. As to the method: Activated FLT3 expression was measured by performing immunoprecipitation, SDS-PAGE and Western blotting as previously described. Specifically, 10^7 cells were washed in medium and treated with inhibitor for 1 h followed by stimulation with 25 ng/ml of FLT3 ligand for 15 minutes where indicated. Cells were washed twice with ice-cold PBS and lysed in 300 µl of NP-40 lysis buffer (150 mM NaCl, 20 mM TrisHCl (pH7.4), 10% glycerol, 1% NP-40, 10 mM EDTA, 100 mM NaF) with 2 mM Na3VO4 and protease inhibitors (Complete Tablets, Roche, Mannheim, Germany) at 4°C for 30 m. Cell lysate was harvested by centrifugation at 13,000 × g for 30 m at 4°C. FLT3 S-18 antibody was incubated with 500 µg lysate overnight at 4°C followed by immunoprecipitation with protein A-agarose beads for 2 h. Beads were washed once in Tris buffered saline with 1% Tween-20 (TBST) and twice in TBS. Samples were boiled in sodium dodecyl sulfate (SDS) sample buffer prior to separating in a 8% SDS-polyacrylamide gel (SDS-PAGE). Proteins were transferred to a polyvinyl diflouride (PVDF) membrane (Millipore, Bedford, MA, USA) and detected by 4G10 phosphotyrosine antibody and anti-FLT3 S-18 antibody. FLT3 was visualized using the Odyssey Infra Red Imaging System from Li-Cor (Lincoln, NE, USA) using AlexaFluor 680 goat anti-mouse and AlexaFluor 800 goat anti-rabbit antibodies. […]
A general note: In western blotting, separated proteins are transferred to a membrane and probed.

[11] abbreviates: BaF3 FLT3 I836S, no IL-3, 48 h, MTT.
The mark [12] stands for this setting: BaF3 FLT3 D835A, no IL-3, 48 h, MTT.

With `Cc1cc2ncc(-c3ccccc3)nc2cc1C` [AG1295], the IC50 in [1] (setting [11]) was over 3000 nM; in [2], over 3000 nM; in assay [3] it was 423 nM; in assay [4] it was over 3000 nM; in assay [5] it was over 3000 nM; in assay [6] it was 411 nM. Also, the IC50 is 500 nM in [7]; 298 nM in the assay with BaF3/ITD cells; over 3000 nM in [8]; 1970 nM in assay [9] (setting [12]); over 3000 nM in [10].

As to `Cc1ccc(C(=O)Nc2ccc(CN3CCN(C)CC3)c(C(F)(F)F)c2)cc1C#Cc1cnc2cccnn12` [Ponatinib], the IC50 in assay [1] (BaF3, 48 h) is over 1000 nM; in assay [2], 10.7 nM; in assay [3] it was under 1 nM; in assay [4], over 1000 nM; in [5], over 1000 nM; in assay [6], under 1 nM. Further, the IC50 is under 1 nM in assay [7]; under 1 nM in the assay on BaF3/ITD cells; under 1 nM in assay [8]; 148 nM in assay [9] (BaF3, 48 h); 92 nM in [10]. For the same compound, the “Inhibition of FLT3 phosphorylation” value in the assay with FLT3 D835L+K is recorded as “significant autophosphorylation still observable”.

Take `CC1(COc2ccc3c(c2)ncn3-c2ccc3cccc(N4CCC(N)CC4)c3n2)COC1` [Crenolanib]: the IC50 in assay [1] (setting [11]) is over 1000 nM; in assay [2] it was 70 nM; in [3], 110 nM; in [4] it was over 1000 nM; in assay [5], over 1000 nM; in assay [6], 80 nM. The IC50 in assay [7] is 83 nM; with BaF3/ITD cells it was 57 nM; in assay [8], 50 nM; in [9] (setting [12]) it was 78.1 nM; in assay [10] it was 58 nM. Besides, in the assay on FLT3 D835L+K, the “Inhibition of FLT3 phosphorylation” value is listed as “significant autophosphorylation still observable”.
